Consider 24 compounds from ChEMBL document CHEMBL1146677, “Orally active anti-proliferation agents: novel diphenylamine derivatives as FGF-R2 autophosphorylation inhibitors” (Bioorg Med Chem Lett, 2004).

pIC50: −log10 of the molar value. ≈ marks a conversion by molar mass, not a printed value. Calls of active or inactive are those of the source. A value given as a limit tells only on which side of the number the result lay.

For data set [1], the target named is T1, Fibroblast growth factor receptor 2 (Homo sapiens, UniProt P21802). Kind of data set: In vitro inhibition against autophosphorylation of Fibroblast growth factor receptor 2 in the human scirrhous gastric carcinoma cell line.
Target sequence in this assay (P21802 whole entry): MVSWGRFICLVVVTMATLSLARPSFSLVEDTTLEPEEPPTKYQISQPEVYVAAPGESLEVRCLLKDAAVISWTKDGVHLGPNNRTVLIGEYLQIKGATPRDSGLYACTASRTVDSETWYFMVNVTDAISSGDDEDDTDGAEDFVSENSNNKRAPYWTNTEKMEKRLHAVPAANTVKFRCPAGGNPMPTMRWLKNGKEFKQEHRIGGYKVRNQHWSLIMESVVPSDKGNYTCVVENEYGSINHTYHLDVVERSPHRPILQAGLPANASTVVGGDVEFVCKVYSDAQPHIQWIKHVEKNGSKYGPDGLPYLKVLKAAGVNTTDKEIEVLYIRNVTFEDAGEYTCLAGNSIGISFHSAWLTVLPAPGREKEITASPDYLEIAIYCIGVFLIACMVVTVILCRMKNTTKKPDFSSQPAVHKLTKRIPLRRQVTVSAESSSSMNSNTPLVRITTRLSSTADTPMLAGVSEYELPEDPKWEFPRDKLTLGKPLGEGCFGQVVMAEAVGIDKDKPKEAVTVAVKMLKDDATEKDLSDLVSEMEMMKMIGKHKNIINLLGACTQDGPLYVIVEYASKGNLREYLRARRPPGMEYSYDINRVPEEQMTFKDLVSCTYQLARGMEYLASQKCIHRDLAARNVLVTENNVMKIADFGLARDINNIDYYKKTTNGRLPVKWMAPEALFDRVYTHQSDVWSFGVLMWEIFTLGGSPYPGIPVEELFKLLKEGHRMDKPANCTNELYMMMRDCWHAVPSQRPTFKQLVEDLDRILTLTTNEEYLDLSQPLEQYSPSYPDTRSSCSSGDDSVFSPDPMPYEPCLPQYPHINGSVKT
The species entered for data set [2] is Rattus norvegicus. Nature of the data set: Percent remaining after incubation with rat liver microsomes for 10 min. It counts as functional.
Data set [3] concerns the target T1, Fibroblast growth factor receptor 2. Kind of data set: Ex vivo inhibition of fibroblast growth factor receptor (FGF-R2) autophosphorylation 5 hr after the oral administration at 100 mg/kg. It counts as functional, organism-based. More on the design: dose 100 mg/kg.
Target sequence in this assay (P21802 22-821 limits assumed): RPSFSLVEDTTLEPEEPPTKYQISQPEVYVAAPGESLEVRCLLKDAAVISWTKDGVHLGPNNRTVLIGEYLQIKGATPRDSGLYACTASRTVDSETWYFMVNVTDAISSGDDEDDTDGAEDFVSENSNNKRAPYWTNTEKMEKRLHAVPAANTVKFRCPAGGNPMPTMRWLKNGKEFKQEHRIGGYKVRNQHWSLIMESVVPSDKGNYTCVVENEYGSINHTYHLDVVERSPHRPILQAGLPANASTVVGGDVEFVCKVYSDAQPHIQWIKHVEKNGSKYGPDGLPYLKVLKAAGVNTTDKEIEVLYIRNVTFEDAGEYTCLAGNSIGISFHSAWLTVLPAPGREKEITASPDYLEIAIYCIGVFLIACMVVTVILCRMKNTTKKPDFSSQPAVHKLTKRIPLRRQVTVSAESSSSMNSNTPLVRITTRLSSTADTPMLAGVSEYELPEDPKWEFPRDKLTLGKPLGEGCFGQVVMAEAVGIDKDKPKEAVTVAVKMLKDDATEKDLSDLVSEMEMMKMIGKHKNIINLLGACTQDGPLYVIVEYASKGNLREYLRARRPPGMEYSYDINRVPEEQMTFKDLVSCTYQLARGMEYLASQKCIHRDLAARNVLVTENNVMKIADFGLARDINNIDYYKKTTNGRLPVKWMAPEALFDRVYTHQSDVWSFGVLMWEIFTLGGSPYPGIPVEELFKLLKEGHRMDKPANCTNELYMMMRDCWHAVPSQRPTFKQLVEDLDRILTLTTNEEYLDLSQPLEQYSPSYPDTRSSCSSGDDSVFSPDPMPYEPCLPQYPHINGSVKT
Data set [4] is described as follows: Solubility after at a pH 1.2. The data set is classed as physicochemical. The settings on record: buffer, read-out: Activity.
Data set [5] is filed under the species Homo sapiens. Nature of the data set: Percent remaining after incubation with human liver microsomes for 40 min. It counts as functional.
Data set [6] is filed under the species Rattus norvegicus. Nature of the data set: Percent remaining after incubation with rat liver microsomes for 40 min. It counts as functional.
The nature of data set [7]: Solubility after at pH 1.2. The data set is classed as physicochemical. The settings on record: buffer, read-out: Activity.
Data set [8] concerns the target Platelet-derived growth factor receptor (Homo sapiens, UniProt P09619+P16234). Kind of data set: Inhibition of PDGF-receptor autophosphorylation in intact cells. The data set is classed as cell-based.
The target in data set [9] is T2, Hepatocyte growth factor receptor (Homo sapiens, UniProt P08581). Nature of the data set: Inhibition of c-Met autophosphorylation in intact cells at 10 uM (inactive). It counts as cell-based.
The species entered for data set [10] is Homo sapiens. Kind of data set: Percent remaining after incubation with human liver microsomes for 10 min. The data set is classed as functional.
The target of data set [11] is T3, Insulin-like growth factor 1 receptor (Homo sapiens, UniProt P08069). Nature of the data set: Inhibition of IGF-receptor 1 autophosphorylation in intact cells at 10 uM (inactive). The data set is classed as cell-based.
T3 sequence (P08069 31-736 limits assumed): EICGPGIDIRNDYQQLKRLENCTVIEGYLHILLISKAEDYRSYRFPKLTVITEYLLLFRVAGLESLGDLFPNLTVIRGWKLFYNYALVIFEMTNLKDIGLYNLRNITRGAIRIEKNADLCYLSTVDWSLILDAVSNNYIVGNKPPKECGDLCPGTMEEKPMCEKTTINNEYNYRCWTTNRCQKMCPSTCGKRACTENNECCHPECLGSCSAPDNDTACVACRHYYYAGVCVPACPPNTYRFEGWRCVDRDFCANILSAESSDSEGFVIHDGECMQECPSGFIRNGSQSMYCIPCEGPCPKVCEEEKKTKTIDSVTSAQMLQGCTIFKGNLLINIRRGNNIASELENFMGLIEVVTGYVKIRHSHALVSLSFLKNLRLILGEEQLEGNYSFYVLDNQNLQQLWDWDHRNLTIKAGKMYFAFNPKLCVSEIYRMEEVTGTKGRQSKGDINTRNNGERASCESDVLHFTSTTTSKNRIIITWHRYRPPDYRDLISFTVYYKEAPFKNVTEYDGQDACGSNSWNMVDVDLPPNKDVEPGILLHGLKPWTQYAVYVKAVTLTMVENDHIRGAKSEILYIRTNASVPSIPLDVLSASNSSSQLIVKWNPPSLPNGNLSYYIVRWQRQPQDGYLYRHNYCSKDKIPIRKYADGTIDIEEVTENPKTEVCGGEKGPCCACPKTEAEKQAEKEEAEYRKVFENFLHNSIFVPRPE
T3 sequence (P08069 741-1367 limits assumed): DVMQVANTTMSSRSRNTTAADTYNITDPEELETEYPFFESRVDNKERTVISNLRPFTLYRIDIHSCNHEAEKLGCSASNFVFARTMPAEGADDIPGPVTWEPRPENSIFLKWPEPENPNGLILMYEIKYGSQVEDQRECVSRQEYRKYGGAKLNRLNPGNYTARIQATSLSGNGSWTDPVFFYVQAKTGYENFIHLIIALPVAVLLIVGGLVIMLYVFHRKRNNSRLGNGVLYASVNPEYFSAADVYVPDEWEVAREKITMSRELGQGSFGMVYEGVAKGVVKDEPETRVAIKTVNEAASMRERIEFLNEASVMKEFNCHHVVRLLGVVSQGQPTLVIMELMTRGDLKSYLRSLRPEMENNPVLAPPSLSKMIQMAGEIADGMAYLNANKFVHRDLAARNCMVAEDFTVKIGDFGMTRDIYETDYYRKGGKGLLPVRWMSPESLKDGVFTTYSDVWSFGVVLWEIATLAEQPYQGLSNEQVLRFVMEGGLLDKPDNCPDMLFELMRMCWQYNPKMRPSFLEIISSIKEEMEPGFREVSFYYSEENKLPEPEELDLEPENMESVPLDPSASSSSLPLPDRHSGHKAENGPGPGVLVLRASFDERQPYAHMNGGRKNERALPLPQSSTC
The target of data set [12] is Mast/stem cell growth factor receptor Kit (Homo sapiens, UniProt P10721). Nature of the data set: Inhibition of c-Kit autophosphorylation in intact cells. The data set is classed as cell-based.
Data set [13] concerns the target T4, Epidermal growth factor receptor (Homo sapiens, UniProt P00533). Nature of the data set: Inhibition of EGF-receptor autophosphorylation in intact cells. It counts as cell-based.
Data set [14] addresses T3, Insulin-like growth factor 1 receptor. Nature of the data set: Inhibition of IGF-receptor 1 autophosphorylation in intact cells. The data set is classed as cell-based.
Data set [15] has as its target T4, Epidermal growth factor receptor. Kind of data set: Inhibition of EGF-receptor autophosphorylation in intact cells at 10 uM (inactive). It counts as cell-based.
Data set [16] addresses Vascular endothelial growth factor receptor 2 (Homo sapiens, UniProt P35968). Kind of data set: Inhibition of vascular endothelial growth factor receptor 2 autophosphorylation in intact cells. The data set is classed as cell-based.
The target in data set [17] is T2, Hepatocyte growth factor receptor. Nature of the data set: Inhibition of c-Met autophosphorylation of in intact cells. The data set is classed as cell-based.
The nature of data set [18]: Solubility after injection of water. It counts as physicochemical. The settings on record: read-out: Activity.

T4 sequence (P00533 whole entry): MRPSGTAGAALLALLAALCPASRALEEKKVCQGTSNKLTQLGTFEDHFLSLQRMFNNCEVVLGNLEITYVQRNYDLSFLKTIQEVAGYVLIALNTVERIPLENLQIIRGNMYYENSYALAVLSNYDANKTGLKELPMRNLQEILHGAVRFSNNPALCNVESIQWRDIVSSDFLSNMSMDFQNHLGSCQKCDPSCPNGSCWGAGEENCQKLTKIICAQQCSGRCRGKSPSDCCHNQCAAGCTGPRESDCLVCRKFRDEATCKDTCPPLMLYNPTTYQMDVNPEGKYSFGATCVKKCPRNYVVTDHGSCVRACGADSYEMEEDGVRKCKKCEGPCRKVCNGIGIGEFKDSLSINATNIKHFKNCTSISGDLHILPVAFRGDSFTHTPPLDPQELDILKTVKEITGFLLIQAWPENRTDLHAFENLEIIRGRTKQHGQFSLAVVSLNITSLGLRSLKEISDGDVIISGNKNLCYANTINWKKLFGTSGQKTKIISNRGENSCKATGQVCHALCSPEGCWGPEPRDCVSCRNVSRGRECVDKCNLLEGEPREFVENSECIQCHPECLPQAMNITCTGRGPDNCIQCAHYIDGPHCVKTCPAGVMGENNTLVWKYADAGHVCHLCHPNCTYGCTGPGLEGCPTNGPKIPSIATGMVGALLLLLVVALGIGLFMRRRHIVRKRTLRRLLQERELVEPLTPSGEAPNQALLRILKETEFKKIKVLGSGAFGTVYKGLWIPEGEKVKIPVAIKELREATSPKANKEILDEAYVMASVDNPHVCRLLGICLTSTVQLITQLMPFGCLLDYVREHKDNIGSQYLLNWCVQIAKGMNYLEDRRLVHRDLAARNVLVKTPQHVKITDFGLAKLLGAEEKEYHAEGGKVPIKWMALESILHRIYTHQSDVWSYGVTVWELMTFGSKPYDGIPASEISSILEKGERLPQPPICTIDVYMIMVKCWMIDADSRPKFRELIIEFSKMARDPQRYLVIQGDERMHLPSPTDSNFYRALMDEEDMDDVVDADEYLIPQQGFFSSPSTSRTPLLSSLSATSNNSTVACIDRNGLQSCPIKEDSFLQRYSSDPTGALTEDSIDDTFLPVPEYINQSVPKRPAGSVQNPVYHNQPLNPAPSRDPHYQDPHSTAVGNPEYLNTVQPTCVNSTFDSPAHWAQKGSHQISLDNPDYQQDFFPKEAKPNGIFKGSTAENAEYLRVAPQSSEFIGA

In the case of `COc1cc2c(Oc3ccc(Nc4ccc(C(C)(C)C)cc4)cc3)ccnc2cc1OCCCN1CCCCC1`, the pIC50 in [1] is 6.46. In the data set filed under Rattus norvegicus [2], this compound returned a Metabolism of 28%.
Take `COc1cc2nccc(Oc3ccc(Nc4ccc(C(C)C)cc4)cc3)c2cc1OC`: the pIC50 in data set [1] is 6.70.
Turning to `COc1cc2c(Oc3ccc(Nc4ccc(C(C)(C)C)cc4)cc3)ccnc2cc1OCCN1CCC(CO)CC1`, the pIC50 in data set [1] was 7.64. Besides, in the data set filed under Rattus norvegicus [2], the Metabolism was found to be 51%.
In data set [1], `COc1cc2nccc(Oc3ccc(Nc4ccc(C(C)(C)C)cc4)cc3C)c2cc1OC` had a pIC50 of less than 5.00.
For `COc1cc2nccc(Oc3ccc(Nc4ccc(C(C)(C)C)cc4)cc3F)c2cc1OC`, the pIC50 in data set [1] is 7.27.
Turning to `COc1cc2nccc(Oc3ccc(Nc4ccc(C(C)(C)C)cc4)cc3)c2cc1OC`, the pIC50 in data set [1] was 7.40. For the same compound, the inhibition in data set [3] was determined as 70%. Also, in data set [4], the solubility came out at 3 µg/mL (≈ 7 µM).
In turn, `COc1cc2c(Oc3ccc(Nc4ccc(C(C)(C)C)cc4)cc3F)ccnc2cc1OCCNCCO` showed a pIC50 in [1] of 7.15. This compound gave a Metabolism in the data set listed under Rattus norvegicus [2] of 60%.
In data set [1], `COc1cc2nccc(Oc3ccc(NC4CCC(C(C)(C)C)CC4)cc3)c2cc1OC` (stereo unspecified) showed a pIC50 of 5.47.
The same measure, in the same setting: with `COc1cc2nccc(Oc3ccc(Nc4ccccc4)cc3)c2cc1OC` the figure was 5.05.
The compound `COc1cc2c(Oc3ccc(Nc4ccc(C(C)(C)C)cc4)cc3)ccnc2cc1OCC(O)CN1CCOCC1` (stereo unspecified) showed a pIC50 in [1] of 7.15. In addition, in the data set listed under Rattus norvegicus [2], the Metabolism stood at 72%.
On the same counts, the results for `COc1cc2c(Oc3ccc(Nc4ccc(C(C)(C)C)cc4)cc3)ccnc2cc1OCCN(CCO)CCO` are 7.15 and 46%.
As for `COc1cc2nccc(Oc3ccc(Nc4ccc(C(C)(C)C)cc4)c(C)c3C)c2cc1OC`, the pIC50 in data set [1] is 6.89.
In the case of `COc1cc2c(Oc3ccc(Nc4ccc(C(C)(C)C)cc4)cc3)ccnc2cc1OCCNCCO`, the Metabolism in the data set listed under Homo sapiens [5] was 89%; in the data set listed under Rattus norvegicus [6], 78%; in the data set filed under Homo sapiens [10] it was 99%; in the data set filed under Rattus norvegicus [2] it was 97%. The pIC50 in data set [1] was 7.06; in data set [8], 7.00; in data set [12], 6.32; in [13] it was less than 5.00; in data set [14] it was less than 5.00; in data set [16], 7.08. The same compound showed a pIC50 in [17] of less than 5.00. Also, the results for the solubility in data set [7] and in data set [18] were 802 µg/mL (≈ 1600 µM) and 108 µg/mL (≈ 215 µM), respectively. Besides, the outcome in [9], in [11] and in [15] was inactive.
Take `COc1cc2c(Oc3ccc(Nc4ccc(C(C)(C)C)cc4)cc3)ccnc2cc1OCC(O)CN1CCCCC1` (stereo unspecified): the pIC50 in data set [1] is 6.70. In the data set listed under Rattus norvegicus [2], this compound had a Metabolism of 78%.
On to `COc1cc2nccc(Oc3ccc(Nc4ccc(C(C)(C)C)cc4)c(F)c3)c2cc1OC`, for which, in data set [1], the pIC50 is 7.20.
The same measure, in the same setting: with `COc1cc2nccc(Oc3ccc(Nc4ccc(C(C)(C)C)cc4)c(C(F)(F)F)c3)c2cc1OC` the figure was less than 5.00.
Same read-out and setting: in the case of `COc1cc2nccc(Oc3ccc(Nc4ccc(C(C)(C)C)cc4)c(C)c3)c2cc1OC` it was 7.00; in that of `COc1ccc(Nc2ccc(Oc3ccnc4cc(OC)c(OC)cc34)cc2)cc1`, 6.11.
In [1], `COc1cc2c(Oc3ccc(Nc4ccc(C(C)(C)C)cc4)cc3)ccnc2cc1OCCN1CCOCC1` showed a pIC50 of 6.70. Also, in the data set filed under Rattus norvegicus [2], the Metabolism is 9%.
Consider `COc1cc2nccc(Oc3ccc(C(=O)c4ccc(C(C)(C)C)cc4)cc3)c2cc1OC`, for which the pIC50 in [1] is 6.72. Further, in data set [3], the inhibition amounted to 3%.
As to `COc1cc2c(Oc3ccc(Nc4ccc(C(C)(C)C)cc4)c(F)c3)ccnc2cc1OCCNCCO`, the pIC50 in data set [1] is 6.59. Besides, the Metabolism in the data set listed under Rattus norvegicus [2] was found to be 92%.
In the case of `COc1cc2nccc(Oc3ccc(Oc4ccc(C(C)(C)C)cc4)cc3)c2cc1OC`, in [1], the pIC50 was 6.36.
Take `COc1cc2nccc(Oc3ccc(Cc4ccc(C(C)(C)C)cc4)cc3)c2cc1OC`: the pIC50 in data set [1] is less than 6.00. This compound returned an inhibition in data set [3] of 5%.
The compound `COc1cc2nccc(Oc3ccc(Nc4cccc(-c5ccccc5)c4)cc3)c2cc1OC` showed a pIC50 in data set [1] of less than 5.00.
